# According to patent US11866689B2, “Splice-switching oligonucleotides and methods of use” (Duke University, priority 2018, dated 2024):
# Columns and labels:
# Assay type in all cases: cell-based
# ARv7 [1] = assay: ARv7 level after morpholino treatment of LN95 cells (RT-qPCR); settings: 0-2.5 uM in complete media, 72 h, FIG. 6A
# Protocol: (§1) Briefly, LN95 cells were seeded in a 12 well plate in complete media (RPMI+10% charcoal stripped FBS) at 250,000 cells per well and incubated at 37 C and 5% CO2 in a humidified incubator. After 24 hours, 0, 0.5, 1, 1.5, 2, or 2.5 uM of ARv7 morph 1 morpholino or control morpholino was diluted in complete media and added to each well. After 72 additional hours of incubation, media was removed and cells were collected in RNA lysis buffer.
# (§2) RNA was extracted using the Quick-RNA Miniprep kit (Zymo Research) following manufacturer's protocol. RNA was eluted in water and quantified using a Qubit fluorometer (Thermo Fisher). Reverse transcription (RT) reactions were performed using the ABI High Capacity cDNA Reverse Transcription Kit (Thermo Fisher) using 1 ug of RNA. RT reactions were incubated following manufacturer's protocol in a SimpliAmp thermocycler (Life Technologies). […] Fold Change from Scramble was calculated using the 2^-ΔΔCT method with TBP as the housekeeping gene and the control morpholino as the treatment control.
# full length AR [2] = assay: Full length AR level after morpholino treatment of LN95 cells (RT-qPCR); settings: 0-2.5 uM in complete media, 72 h, FIG. 6B
# Protocol: as §1, §2
# ARv7 [3] = assay: ARv7 level after SSO transfection of prostate cancer cells (RT-qPCR, Western blot); settings: for ARv7 (fold change from Scramble): vs Scramble/Scr control
# Protocol: A total of 6.25, 25, 100, or 400 nM of ARv7 SSO-6, 100 nM of ARv7 SSO-6ext, or 100 or 400 nM of Scrambled SSO was diluted in Opti-MEM and mixed with 2 uL Dharmafect 1 (LN95) or RNAiMax (VCaP) diluted in Opti-MEM for a total of 200 uL. The SSO-transfection reagent mixtures were incubated for 10 minutes at room temperature followed by plating in a 12 well plate. A total of 250,000 cells diluted in 800 uL Optimem were seeded atop the SSO-transfection reagent mixtures and incubated for 4 hours at 37° C. and 5% CO2 in a humidified incubator. Media was replaced with complete media after 4 hours (RPMI+10% charcoal stripped FBS for LN95 cells and DMEM+10% FBS for VCaP cells). After an additional 72 or 96 hours of incubation, media was removed and cells were collected in RNA lysis buffer or RIPA buffer containing protease inhibitor (Thermo Fisher).
# RNA was extracted using the Quick-RNA Miniprep kit (Zymo Research) following manufacturer's protocol. RNA was eluted in water and quantified using a Qubit fluorometer (Thermo Fisher). Reverse transcription (RT) reactions were performed using the ABI High Capacity cDNA Reverse Transcription Kit (Thermo Fisher) using 1 ug of RNA. RT reactions were incubated following manufacturer's protocol in a SimpliAmp thermocycler (Life Technologies). […] RT-qPCR was run on a ViiA7 Real-Time PCR System (Applied Biosystems) using the following conditions: 95° C. for 2 minutes, 40×(95 C for 1 second, 60° C. for 20 seconds). Fold Change from Scramble was calculated using the 2^-ΔΔCT method with TBP as the housekeeping gene and the Scrambled SSO as the treatment control.
# RNA was extracted using the Quick-RNA Miniprep kit (Zymo Research) following manufacturer's protocol. RNA was eluted in water and quantified using a Qubit fluorometer (Thermo Fisher). […] Fold Change from Scramble was calculated using the 2^-ΔΔCT method with TBP as the housekeeping gene and the Scrambled SSO as the treatment control.
# full length AR [4] = assay: Full length AR level after SSO transfection of prostate cancer cells (RT-qPCR, Western blot); settings: prostate cancer cell lines LN95, VCaP; 6.25-400 nM transfected; vs Scramble/Scr control; FIG. 2
# Protocol: (§3) For FIGS. 2 and 3, the experimental methods is described briefly. A total of 6.25, 25, 100, or 400 nM of ARv7 SSO-6, 100 nM of ARv7 SSO-[…], or 100 or 400 nM of Scrambled SSO was diluted in Opti-MEM and mixed with 2 uL Dharmafect 1 (LN95) or RNAiMax (VCaP) diluted in Opti-MEM for a total of 200 uL. The SSO-transfection reagent mixtures were incubated for 10 minutes at room temperature followed by plating in a 12 well plate. A total of 250,000 cells diluted in 800 uL Optimem were seeded atop the SSO-transfection reagent mixtures and incubated for 4 hours at 37° C. and 5% CO2 in a humidified incubator. Media was replaced with complete media after 4 hours (RPMI+10% charcoal stripped FBS for LN95 cells and DMEM+10% FBS for VCaP cells). After an additional 72 or 96 hours of incubation, media was removed and cells were collected in RNA lysis buffer or RIPA buffer containing protease inhibitor (Thermo Fisher). […] RNA was eluted in water and quantified using a Qubit fluorometer (Thermo Fisher). […] Fold Change from Scramble was calculated using the 2^-ΔΔCT method with TBP as the housekeeping gene and the Scrambled SSO as the treatment control. Protein samples were quantified using a Bradford assay (Pierce Scientific) and 25 ug of each cell extract was mixed with SDS sample buffer and submitted to SDS-PAGE. […]
# ARv9 = ARv9 level after SSO transfection of prostate cancer cells; settings: prostate cancer cell lines LN95, VCaP; 6.25-400 nM transfected; vs Scramble/Scr control; FIG. 2
# Protocol: as §3
# LN95 cells = assay: Prostate cancer cell proliferation (Incucyte % confluence) after SSO transfection; settings: 100 nM, transfected twice, 7 days, −/+ enzalutamide, vs Scr, FIG. 4
# Protocol: As depicted in FIG. 4, ARv7 SSO-6 inhibits prostate cancer cell (LN95) proliferation. Briefly, a total of 100 nM of ARv7 SSO-6 or 100 nM of Scrambled SSO was diluted in Opti-MEM and mixed with 2 uL Dharmafect 1 for a total of 200 uL. The SSO-transfection reagent mixtures were incubated for 10 minutes at room temperature followed by plating in a 12 well plate. A total of 250,000 LN95 cells diluted in 800 uL Optimem were seeded atop the SSO-transfection reagent mixtures and incubated for 4 hours at 37 C and 5% CO2 in a humidified incubator. Media was replaced with complete media after 4 hours (RPMI+10% charcoal stripped FBS). 72 hours later cells were lifted using 0.25% trypsin and the transfection procedure was repeated. 4 hours after transfection media was replaced with complete media and cells were gently resuspended by pipetting up and down. Cells were then seeded in to a 96 well plate at 10,000 cells/well and the plate was placed in to the Incucyte S3 live cell imager (Essen Bioscience) and incubated at 37° C. and 5% CO2 for 7 days. % confluence was calculated once per day and fold change from 0 hr was calculated for each time point.
substance,measurement,setting,value
TTGCCAACCCGGAATTTTTCTAGTATGA (all phosphorodiamidate morpholino (PMO)) [ARv7 morph 1],ARv7 (fold change from control morpholino),ARv7 [1],dose-dependent decrease
same,full length AR,full length AR [2],maintenance
"mC*mA*mG*mC*mC*mT*mT*mT*mC*mT*mT*mC*mA*mG*mG*mG*mT*mC (CAGCCTTTCTTCAGGGTC; all 2'-O-methyl, all phosphorothioate, T or U not given here) [Arv7 Cons1]",ARv7 RNA (fold change from Scramble),"ARv7 [3]; LN95, 12.5, 25, 50 nM transfected, 72 h, vs Scrambled SSO, FIG. 5",decreases ARv7 RNA in a dose-dependent manner
mG*mC*mC*mA*mA*mC*mC*mC*mG*mG*mA*mA*mU*mU*mU*mU*mU*mC [ARv7 SSO-6],full length AR,full length AR [4],maintenance
same,ARv9,ARv9,maintenance
same,"prostate cancer cell proliferation (% confluence, fold change from 0 hr)",LN95 cells,inhibits
same,ARv7 (fold change from Scramble),"ARv7 [3]; prostate cancer cell lines LN95, VCaP, 6.25, 25, 100, 400 nM transfected, 72 or 96 h, FIG. 2",dose dependent decrease
mG*mC*mC*mA*mA*mC*mC*mC*mG*mG*mA*mA*mU*mU*mU*mU*mU*mC* mU*mA*mG*mU [ARv7 SSO-6ext],ARv7 (fold change from Scramble),"ARv7 [3]; LN95, 100 nM transfected, FIG. 3",decrease
